From the supplement of paper PMC10307832

Key:
Test in all cases: relative viability (nuclei count vs DMSO), 5 days (fraction); higher = more cells survive
IU1-47 + Decitabine = compound: CC1=CC(=C(N1C2=CC=C(C=C2)Cl)C)C(=O)CN3CCCCC3 [IU1-47] + Nc1ncn([C@H]2C[C@H](O)[C@@H](CO)O2)c(=O)n1 [Decitabine] (partner 2 µM)
Method in brief: (§1)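 Lung cancer cell lines in 1536-well plates got either a single drug or a fixed anchor-drug dose together with five library-drug doses (not always all listed) in √10 steps, by pin tool, on the day after seeding. Nuclei were counted after 5 days, and relative viability is the treated-to-vehicle ratio of nuclei counts. Values are medians of duplicate plates.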

IU1-47 + Bortezomib = compound: CC1=CC(=C(N1C2=CC=C(C=C2)Cl)C)C(=O)CN3CCCCC3 [IU1-47] + CC(C)C[C@H](NC(=O)[C@H](Cc1ccccc1)NC(=O)c1cnccn1)B(O)O [Bortezomib] (partner 0.002 µM)
Method in brief: as §1

FG-4592 + Luminespib = compound: Cc1nc(C(=O)NCC(=O)O)c(O)c2ccc(Oc3ccccc3)cc12 [FG-4592] + CCNC(=O)c1noc(-c2cc(C(C)C)c(O)cc2O)c1-c1ccc(CN2CCOCC2)cc1 [Luminespib] (partner 0.01 µM)
Method in brief: as §1

FG-4592 + Dasatinib = compound: Cc1nc(C(=O)NCC(=O)O)c(O)c2ccc(Oc3ccccc3)cc12 [FG-4592] + Cc1nc(Nc2ncc(C(=O)Nc3c(C)cccc3Cl)s2)cc(N2CCN(CCO)CC2)n1 [Dasatinib] (partner 0.075 µM)
Method in brief: as §1

Cell Line | relative viability (IU1-47 + Decitabine; first compound 0.08 µM) | relative viability (IU1-47 + Decitabine; first compound 0.253 µM) | relative viability (IU1-47 + Decitabine; first compound 0.8 µM) | relative viability (IU1-47 + Decitabine; first compound 2.53 µM) | relative viability (IU1-47 + Decitabine; first compound 8 µM) | relative viability (IU1-47 + Bortezomib; first compound 0.08 µM) | relative viability (IU1-47 + Bortezomib; first compound 0.253 µM) | relative viability (IU1-47 + Bortezomib; first compound 0.8 µM) | relative viability (IU1-47 + Bortezomib; first compound 8 µM) | relative viability (FG-4592 + Luminespib; first compound 0.08 µM) | relative viability (FG-4592 + Luminespib; first compound 0.253 µM) | relative viability (FG-4592 + Luminespib; first compound 0.8 µM) | relative viability (FG-4592 + Luminespib; first compound 2.53 µM) | relative viability (FG-4592 + Luminespib; first compound 8 µM) | relative viability (FG-4592 + Dasatinib; first compound 0.08 µM) | relative viability (FG-4592 + Dasatinib; first compound 0.253 µM) | relative viability (FG-4592 + Dasatinib; first compound 0.8 µM) | relative viability (FG-4592 + Dasatinib; first compound 2.53 µM) | relative viability (FG-4592 + Dasatinib; first compound 8 µM) | relative viability (IU1-47 + Bortezomib; first compound 2.53 µM)
201T | 0.891 | 0.864 | 0.943 | 0.867 | 0.856 | 1.1 | 1.06 | 1.14 | 1.05 | 1.04 | 0.984 | 1.06 | 1.03 | 1.06 | 0.549 | 0.566 | 0.616 | 0.569 | 0.646 | 
A549 | 0.284 | 0.321 | 0.335 | 0.253 | 0.221 |  |  |  |  |  |  |  |  |  |  |  |  |  |  | 
A-427 | 0.556 | 0.583 | 0.517 | 0.547 | 0.5 | 1.01 | 0.968 | 1.06 | 0.841 | 0.912 | 0.926 | 0.89 | 1.18 | 1 | 0.649 | 0.611 | 0.741 | 0.725 | 0.717 | 
ABC-1 | 1.23 | 1.32 | 0.922 |  | 1.19 | 0.327 | 0.281 | 0.256 | 0.312 | 0.501 | 0.515 |  | 0.413 | 0.42 | 0.532 | 0.463 | 0.48 | 0.59 | 0.463 | 
BEN | 0.713 | 0.729 | 0.848 | 0.507 | 0.668 | 0.755 | 0.906 | 1.07 | 0.641 | 0.337 | 0.386 | 0.39 | 0.437 | 0.218 | 0.323 | 0.348 | 0.262 | 0.365 | 0.305 | 0.848
CAL-12T |  |  |  |  |  | 1.05 | 0.946 | 0.945 | 0.802 | 0.212 | 0.458 | 0.129 | 0.375 | 0.689 | 0.378 | 0.424 | 0.406 | 0.361 | 0.365 | 0.972
COR-L23 | 0.337 | 0.45 | 0.481 | 0.432 | 0.436 | 1.12 | 1.1 | 1.21 | 1.08 | 0.757 | 0.524 | 0.645 | 0.611 | 0.593 | 0.467 | 0.47 | 0.504 | 0.446 | 0.409 | 0.932
COR-L 105 | 0.793 | 0.624 | 0.677 | 0.751 | 0.66 | 1.23 | 1.01 | 0.851 | 0.708 | 0.779 | 0.696 | 0.752 | 0.847 | 0.776 | 0.309 | 0.306 | 0.294 | 0.258 | 0.286 | 0.899
Calu-6 |  |  |  |  |  | 1.2 | 1.02 | 0.957 | 0.998 |  |  |  |  |  |  |  |  |  |  | 0.96
ChaGo-K-1 | 0.531 | 0.529 | 0.542 | 0.536 | 0.533 | 0.953 | 0.971 | 0.952 | 0.682 | 0.522 | 0.548 | 0.594 | 0.702 | 0.459 | 0.584 | 0.577 | 0.516 | 0.542 | 0.592 | 1.27
EBC-1 |  |  |  |  |  | 0.516 | 0.528 | 0.535 | 0.542 |  |  |  |  |  |  |  |  |  |  | 0.715
EKVX | 0.376 | 0.339 | 0.364 |  | 0.352 | 1.18 | 1.11 | 1.18 | 0.985 | 0.842 | 0.807 | 0.81 | 0.891 | 0.9 | 0.629 | 0.555 | 0.53 | 0.486 | 0.495 | 1.13
EMC-BAC-2 | 1.07 | 1.03 | 0.996 | 1.07 | 0.924 | 1.09 | 1.07 | 1.04 | 1.04 | 1.2 | 1.11 | 1.1 | 1.17 | 1.11 | 0.374 | 0.361 | 0.274 | 0.311 | 0.296 | 1.15
EPLC-272H | 0.362 | 0.38 | 0.4 |  | 0.34 | 1.05 | 0.943 | 1.04 | 0.891 | 0.455 | 0.241 | 0.212 | 0.295 | 0.228 | 0.389 | 0.302 | 0.251 | 0.412 | 0.334 | 
H3255 | 0.696 | 0.681 | 0.689 |  | 0.453 | 1.15 | 1.12 | 0.766 | 0.619 | 0.891 | 0.804 | 0.848 | 0.945 | 0.875 | 0.361 | 0.418 | 0.417 | 0.404 | 0.48 | 0.793
HARA | 0.494 |  | 0.524 | 0.489 | 0.486 | 1.19 | 1.21 | 1.1 | 0.971 | 0.73 | 0.787 | 0.834 | 0.621 | 0.709 | 0.272 | 0.208 | 0.266 | 0.24 | 0.234 | 1.17
